Key:
C57B/6 male mice = test: Passive (inhibitory) avoidance task; type: in vivo; conditions: for Training latency Day 0 (latency to enter the dark/shock compartment): Day 0 is pre-treatment, N = 6/group; for Training latency Day 0 (latency to enter the dark/shock compartment) / Testing latency Day 1 (latency to enter the dark/shock compartment) / Testing latency Day 4 (latency to enter the dark/shock compartment) / Testing latency Day 7 (latency to enter the dark/shock compartment): in s; for Testing latency Day 1 (latency to enter the dark/shock compartment) / Testing latency Day 4 (latency to enter the dark/shock compartment) / Testing latency Day 7 (latency to enter the dark/shock compartment): max trial 180 sec; for memory for the shock-associated environment: IP post-training injections, young mice, versus vehicle
From the text: (§1) The passive avoidance task exploits the tendency for rodents to avoid environments previously associated with an aversive stimulus (e.g. shock) and is therefore a reliable measure of emotional memory. The Morris water maze (MWM) task, a test of spatial learning and memory, requires that the animal learns the spatial locations of various extra-maze cues in order to accurately locate an escape platform that is hidden beneath the surface of the water in a water tank.
Table 2, below, indicates the effects of compounds of the invention in a passive avoidance task (latency to enter the dark/shock compartment as dependent variable). Data were analyzed with One-Way ANOVAs followed by Bonferroni-corrected post-hoc measures (required P value dependent upon number of comparisons). The table below includes data from Vehicle-treated mice and mice treated with Compound A and Compound B.
All treatments were administered IP immediately post-training.
Passive Inhibitory Avoidance
C57B/6 male mice (20-25 g; n=6-8/group) were used in this study.
One Day 0, animals were individually placed in the bright side of a 2-chambered inhibitory avoidance box. Mice were given 35 seconds to acclimate after which a door between the two compartments was lifted and the animals were allowed to cross over into the dark compartment. Once they crossed over, the gate would close and the animal would receive a mild (0.15 mA, 2 sec) footshock. Memory retention for the shock-associated environment was evaluated 24 hours (Day 1), 4 (Day 4) and 7 (Day 7) days later. On each of the three memory retention tests (Days 1, 4, and 7), the mouse was given 15 seconds to acclimate before the gate was lifted. Latency to enter the dark (shock) compartment was measured and considered an index of passive fear avoidance. Maximum trial length=180 sec.

aged rats = test: Morris water maze task; type: in vivo
From the text: as §1
Table 3, below, indicates the effects of Compound C in the Morris water maze task (mean escape latencies across testing days are shown).
Data were analyzed with a Mann-Whitney U Test. Mean escape latency indicates the group mean over three sessions to escape onto the hidden platform. Data are shown for days 7-11 (the water maze training days); animals were dosed twice daily (PO) with 10 mg/kg Compound No. 1 or vehicle (as indicated) on Days 1-6 prior to water maze training.
The Morris Maze consisted of a circular water tank (150 cm in diameter) filled with water and maintained at 27° C. with an escape platform (15 cm in diameter) 18 cm from the perimeter always in the same position 2 cm beneath the surface of the water. The water was made opaque by addition of a non-toxic coloring agent rendering the platform invisible. The testing was performed under light of moderate intensity.
The animals were given 5 training sessions over 5 consecutive days. Each training session consisted of 3 consecutive trials in the Morris Maze separated by 120 seconds. For each trial the animal was placed in the maze at one of two starting points equidistant from the escape platform and allowed to find the escape platform. The animal was left on the escape platform for 60 seconds followed by a 60-second rest in an individual cage before starting a new trial. […] During the 3 trials the animals started the maze from the different starting points in a randomly determined order per animal.
The trials were video-recorded and the behavior of the animals was analyzed using a video-tracking system (Panlab: Smart). The principal measure taken was the escape latency (time to find the hidden platform) at each trial. Additional measures (path length (distance traveled to find the hidden platform) and average speed) were also measured.
Aged animals show amnesia in this task as indicated by a lower capacity to reduce their escape latencies from trial to trial.
15 aged rats were studied per group. The experiment also included a young control group. The test was performed blind.
Compound C was evaluated at the dose of 10 mg/kg, administered p.o., and compared with a vehicle control group. The animals received the assigned treatment twice daily for 6 days prior to water-maze training. Twice daily administration continued during training, with one administration 60 minutes before each training session and the second administration between either 8.30-9.30 am or 4:30-5:30 pm, whichever was furthest from the training session for that particular animal.
The experiment therefore included 3 groups.
Data were analyzed by comparing treated groups with aged control using Mann Whitney U tests. In addition, the data were submitted to a two-factor analysis of variance (with age and session as factors, with repeated measures for session).

[1] = 1 mg/kg IP given immediately post-training
[2] = 1 mg/kg IP immediately post-training
[3] = 10 mg/kg IP given immediately post-training
[4] = 10 mg/kg IP immediately post-training

`N[C@@H](C(=O)N1CCCC1)[C@@H](O)c1ccncc1` [Compound A] was tested. Which “Training latency Day 0 (latency to enter the dark/shock compartment)” value (C57B/6 male mice; [1]) did it give?
The value was 14.26.

And the “Testing latency Day 1 (latency to enter the dark/shock compartment)” value (C57B/6 male mice; [2])?
The value was 64.34.

What about the “Testing latency Day 4 (latency to enter the dark/shock compartment)” value (C57B/6 male mice; [2]) of the same molecule?
Its value is 65.52.

What about the “Testing latency Day 7 (latency to enter the dark/shock compartment)” value (C57B/6 male mice; [2]) of the same molecule?
Its value is 54.32.

What about the “Training latency Day 0 (latency to enter the dark/shock compartment)” value (C57B/6 male mice; [3]) of the same molecule?
Its value is 9.88.

And the “Testing latency Day 1 (latency to enter the dark/shock compartment)” value (C57B/6 male mice; [4])?
Its value is 82.58.

What about the “Testing latency Day 4 (latency to enter the dark/shock compartment)” value (C57B/6 male mice; [4]) of the same molecule?
The value was 58.33.

What about the “Testing latency Day 7 (latency to enter the dark/shock compartment)” value (C57B/6 male mice; [4]) of the same molecule?
The value was 47.87.

What about the “memory for the shock-associated environment” value (C57B/6 male mice) of the same molecule?
Its value is “significantly improved memory”.

`N[C@@H](C(=O)N1CCCCC1)[C@@H](O)c1ccsc1` [Compound B] was tested. Which “Training latency Day 0 (latency to enter the dark/shock compartment)” value (C57B/6 male mice; [1]) did it give?
The value was 6.58.

And the “Testing latency Day 1 (latency to enter the dark/shock compartment)” value (C57B/6 male mice; [2])?
The value was 95.42.

What about the “Testing latency Day 4 (latency to enter the dark/shock compartment)” value (C57B/6 male mice; [2]) of the same molecule?
Its value is 81.

What about the “Testing latency Day 7 (latency to enter the dark/shock compartment)” value (C57B/6 male mice; [2]) of the same molecule?
Its value is 43.55.

What about the “Training latency Day 0 (latency to enter the dark/shock compartment)” value (C57B/6 male mice; [3]) of the same molecule?
The value was 8.43.

And the “Testing latency Day 1 (latency to enter the dark/shock compartment)” value (C57B/6 male mice; [4])?
The value was 126.27.

What about the “Testing latency Day 4 (latency to enter the dark/shock compartment)” value (C57B/6 male mice; [4]) of the same molecule?
Its value is 83.4.

And the “Testing latency Day 7 (latency to enter the dark/shock compartment)” value (C57B/6 male mice; [4])?
The value was 56.22.

What about the “memory for the shock-associated environment” value (C57B/6 male mice) of the same molecule?
Its value is “significantly improved memory”.

For `N[C@@H](C(=O)N1CCCC1)[C@@H](O)c1ccncc1` [Compound C], which “escape latency of aged rats over the training period” value (aged rats; 10 mg/kg twice daily for 6 days prior to and during the experiment, compared with aged controls) is on record?
The value was “decreased the escape latency”.

And the “effect on escape latency, pooled data of the last 3 training sessions” value (aged rats; 10 mg/kg twice daily, aged rats versus aged controls)?
The value was “statistically significant”.

What about the “Mean Escape Latency Day 7” value (aged rats; aged rats, 10 mg/kg p.o. twice daily, Day 7 (1st training day)) of the same molecule?
Its value is 69.9 ± 4.0 s.

What about the “Mean Escape Latency Day 8” value (aged rats; aged rats, 10 mg/kg p.o. twice daily, Day 8) of the same molecule?
The value was 49.3 ± 5.4 s.

And the “Mean Escape Latency Day 9” value (aged rats; aged rats, 10 mg/kg p.o. twice daily, Day 9)?
Its value is 41.0 ± 1.8 ⋄ sec.

And the “Mean Escape Latency Day 10” value (aged rats; aged rats, 10 mg/kg p.o. twice daily, Day 10)?
The value was 28.0 ± 2.2 s.

What about the “Mean Escape Latency Day 11” value (aged rats; aged rats, 10 mg/kg p.o. twice daily, Day 11) of the same molecule?
The value was 30.4 ± 3.4 s.

Source: patent US9303021B2, “Methods for treating cognitive disorders using 3-aryl-3-hydroxy-2-amino-propionic acid amides, 3-heteroaryl-3-hydroxy-2-amino-propionic acid amides and related compounds” (Allergan, Inc., priority 2007, dated 2016)
